In brackets after ≈: the same amount, converted by molar mass.
Columns and labels:
HCC1569 cells = assay: Cytostatic activity, CTG assay (HCC1569); type: cell-based; conditions: Homo sapiens, HCC1569, 120 h, 5 days
Experimental: Biological test example 2. Cytostatic activity of compounds of the present disclosure
CTG assay (HCC1569) was used to verify the biological activity of some of the example compounds of the present disclosure.
HCC1569 cells were purchased from ATCC (Cat. No.: CRL-2330) and cultured in a 37°C, 5% CO2 cell culture incubator. HCC1569 complete medium: RPMI-1640 liquid medium (Cat. No.: Gibico 11875-093), 20% FBS (Cat. No.: Gibico 10099-141), 1% Pen Strep (Cat. No.: Gibico 15070-063).
HCC1569 cells in a 75 cm^2 culture flask were digested with 2 mL of trypsin for 2-3 min, and then neutralized with 2 mL of 1640 complete medium. The mixture was centrifuged at 1200 rpm for 5 minutes. Cells were resuspended using 4 mL of 1640 complete medium. 500 µL of cell suspension was taken for cell counting using Vi-CELL-XR cell counter.
Using a Multidrop instrument, the HCC1569 cells were seeded in a 384-well plate at a density of 1000 cells per well (50 µL 1640 Growth Media) and administrated 24 hours later.
Using an ultra-micro pipette, the test compound (concentration: 3.33 mM, dissolved in DMSO) was diluted with 10 µM as the highest starting concentration, and then sequentially diluted in 10 gradients at a ratio of 1:3 (10000 nM, 3333 nM, 1111 nM, 370 nM, 123 nM, 41 nM, 13.7 nM, 4.6 nM, 1.5 nM, 0.5 nM) for administration treatment, with two duplicate wells for each concentration; 14 wells for positive and negative controls were set, with the positive control being the duplicate wells of 10 µM positive compound and the negative control being the duplicate wells of DMSO.
After the administration was completed, the cells were placed in a 37°C incubator for further culture for 5 days. After 5 days, 25 µL of CTG buffer was added to each well for CTG assay detection, and analyzed using a microplate reader. CTG readings were analyzed.
a = CTG value (highest concentration), b = CTG value (blank well), x = CTG value(test well).
IC50 was calculated using GraphPad PRISM 8.
Log10 (A compound concentration) was used for statistical calculation. (2) The data were input into GraphPad PRISM 8, and Analysis was selected. (3) Nonlinear regression (curve fit) was selected. (4) Log (inhibitor) vs. response-Variable slope was selected. (5) The calculation formula was selected, and the calculation was carried out according to the following formula: Y = Bottom + (Top-Bottom)/(1+10^((LogIC50-X)*HillSlope)), X: logarithm of dose or concentration, Y: response value, Top and Bottom: peak and bottom values. (6) The data were fitted to obtain IC50 values. (7) The fitting conditions were adjusted according to the specific data. Appropriate Constraint conditions were adjusted for Bottom, Top, and HillSlope. The curve that best fits the actual situation has been reached.

PKMYT1 enzyme = biological target: T1, PKMYT1 enzyme (Homo sapiens, UniProt Q99640); assay: PKMYT1 enzyme inhibition activity, ADP-GLO method; type: biochemical; conditions: PKMYT1 enzyme 10 nM, ATP 5 µM, 37°C 90 minutes; read-out: ADP-GLO IC50
T1 construct: purchased Thermo Scientific A33387
T1 sequence (Q99640 1-499): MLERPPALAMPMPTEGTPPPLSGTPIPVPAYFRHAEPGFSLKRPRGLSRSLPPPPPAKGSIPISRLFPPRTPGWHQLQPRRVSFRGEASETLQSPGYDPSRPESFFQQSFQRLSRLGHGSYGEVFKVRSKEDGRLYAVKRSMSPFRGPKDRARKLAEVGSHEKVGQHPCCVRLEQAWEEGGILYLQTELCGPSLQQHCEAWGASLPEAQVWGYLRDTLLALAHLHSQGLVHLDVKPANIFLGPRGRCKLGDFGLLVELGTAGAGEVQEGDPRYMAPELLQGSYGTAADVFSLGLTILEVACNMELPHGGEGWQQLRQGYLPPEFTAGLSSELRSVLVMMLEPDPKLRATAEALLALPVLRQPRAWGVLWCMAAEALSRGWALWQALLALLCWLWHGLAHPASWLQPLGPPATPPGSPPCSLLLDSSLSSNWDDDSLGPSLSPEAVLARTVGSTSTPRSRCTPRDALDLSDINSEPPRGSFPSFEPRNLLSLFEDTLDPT

[1] = Metabolic stability in mouse liver microsomes
Experimental: The concentration of the parent drug in the incubation system was detected by LC/MS/MS, and the intrinsic clearance rate of the test compound in the microsome system was calculated to evaluate its stability. The test concentration of the test compound and the positive control compound was 1 µM. • 1. 25 µL of NADPH (10 mM) or phosphate buffered saline (100 mM, pH = 7.4) was transferred to the liver microsome incubation system, and 2 µL of the test sample or verapamil at a concentration of 200 µM was added. Samples supplemented with NADPH were prepared in duplicate, and NADPH-negative samples were prepared in singlicate. • 2. 30 µL of the suspension was taken at 0.5, 5, 15, 30, and 60 minutes, respectively. The reaction was stopped by adding 180 µL of acetonitrile containing internal standard and vortexed for 10 min. • 3. […] 100 µL of the supernatant was transferred to the sample injection plate, and 100 µL of pure water was added and mixed well for UPLC-MS/MS analysis. • 4. All data calculations were performed using Microsoft Excel software. Peak areas were detected by extracting ion chromatograms. The in vitro half-life (t1/2) of the parent drug was detected by linear fitting the natural logarithm of the parent drug elimination percentage with time.
The in vitro clearance rate Clint (unit: µL/min/mg) was calculated: in vitro CLint = kV/N; V = incubation volume per well (400 µL); V = incubation volume per well (400 µL).

[2] = Tissue distribution: tumor tissue concentration in OVCAR3 tumor-bearing mice; conditions: BALB/c nude mice, 10 mpk p.o. BIDx28D; for Tumor tissue concentration (ng/g) 2 h after administration: 2 h after last administration; for Tumor tissue concentration (ng/g) 6 h after administration: 6 h after last administration
Experimental: The cells were cultured in an incubator at 37°C and 5% CO2. The medium was changed every other day, and the cells were subcultured every 3 to 4 days after the cells had become confluent. Under sterile conditions, the in vitro cultured OVCAR3 cell suspension was taken, centrifuged, and added to adjust the cell concentration to 1 × 10^8 cells/mL, and an equal volume of Matrigel was added, and inoculated subcutaneously on the back of the right hind forelimb of mice (BALB/c nude mice, female, Beijing Vital River Laboratory Animal Technology Co., Ltd.) (0.1 mL/mouse). […] The mice were randomly divided into groups according to tumor size and weight, and the administration of the test compound was started.
The experiment was divided into a solvent control group, a positive control group, and a test group, with 5-6 mice in each group. For the test compound administration group, the test compound was mixed in 0.5% methylcellulose and administered by oral gavage twice a day. The experiment was terminated 28 days after administration, and PK plasma (EDTA-K2 anticoagulated) samples were collected (0.5 h, 1 h, 2 h, and 6 h after administration), and the mice were euthanized and tumor samples were collected 2 h and 6 h after the last administration.
Tumor concentration test method:
All tumor samples were added with pure water at a ratio of 1:3 (3 mL solvent per g tumor), and homogenized using a cryogenic homogenizer to obtain tumor sample solutions.
Standard curve preparation method:
The powder of the test compound was diluted in a gradient manner with 50% acetonitrile aqueous solution to obtain a series of working solutions. 3 µL of working solution (10, 20, 40, 100, 200, 1000, 2000, 10000, and 20000 ng/mL) was added to 57 µL of blank Balb/c nude mouse tumor sample solution to obtain calibration standard solutions of 0.5 to 1000 ng at concentrations of 0.5, 1, 2, 5, 10, 50, 100, 500, and 1000 ng/mL, respectively, in a total volume of 60 µL.
Quality control samples were prepared in the same manner as the calibration standard solutions: 3 µL of working solution (30, 60, 120, 1000, 8000, and 16000 ng/mL) was added to 57 µL of blank Balb/c nude mouse tumor sample solution to obtain 6 quality control samples with concentrations of 1.5 ng/mL, 3 ng/mL, 6 ng/mL, 50 ng/mL, 400 ng/mL, and 800 ng/mL, respectively, with a total volume of 60 µL.
30 µL of the sample (including standard solution, quality control sample, and test sample) was taken, and 200 µL of protein precipitant containing acetonitrile was added to precipitate the protein, vortexed for 30 seconds, then centrifuged at 4°C and 3900 rpm for 15 minutes, and then the supernatant was aspirated and diluted 3 times with water. 5 µL of the diluted supernatant was loaded on the LC/MS/MS system for quantitative analysis.

[3] = Metabolic stability in human hepatocytes; conditions: for hepatocyte CLint at 1 µM: In vitro Clint (µL/min/10^6 cells); for half-life at 1 µM: t1/2 (min)
[4] = TS-FeSSIF & TS-FeSSGF solubility test; conditions: pH 5
[5] = 24 h, pH 5
physchem = conditions: pH 5, Solubility (µg/mL)

Structure (SMILES)	IC50 (HCC1569 cells) [nM]	IC50 (PKMYT1 enzyme) [nM]	other results
Cc1cc(F)c(O)c(C)c1-n1c(N)c(C(N)=O)c2cc(Br)c(C)nc21 (atropisomer, axis not shown) [Example 58.1]	83	3.08	half-life at 1 µM ([1]; liver microsomes): 1.16 h; microsomal CLint at 1 µM ([1]; liver microsomes): 19.9 µL/min/mg
Cc1cc(F)c(O)c(C)c1-n1c(N)c(C(N)=O)c2cc(C(F)(F)F)c(C)nc21 (atropisomer, axis not shown) [Example 59.1]	56	4.49	half-life at 1 µM ([1]; liver microsomes): 3.08 h; microsomal CLint at 1 µM ([1]; liver microsomes): < 7.5 µL/min/mg; Tumor tissue concentration (ng/g) 2 h after administration [2]: 633 ng/g; Tumor tissue concentration (ng/g) 6 h after administration [2]: 231 ng/g; hepatocyte CLint at 1 µM ([3]; Female): 10 µL/min/1e6 cells; hepatocyte CLint at 1 µM ([3]; Male): 7 µL/min/1e6 cells; half-life at 1 µM ([3]; Female): 2.3 h; half-life at 1 µM ([3]; Male): 3.3 h; solubility at 24 h ([4]; ts-fessgf): 253 µg/mL (≈ 639 µM); solubility at 24 h ([4]; ts-fessif): 352 µg/mL (≈ 888 µM)
Cc1cc2c(C(N)=O)c(N)n(-c3c(C)ccc(O)c3C)c2nc1C (atropisomer, axis not shown) [RP-6306, reference compound]			Solubility [5]: 33.9 µg/mL (≈ 105 µM); half-life at 1 µM ([1]; microsomes): 0.377 h; microsomal CLint at 1 µM ([1]; microsomes): 61.3 µL/min/mg; Tumor tissue concentration (ng/g) 2 h after administration [2]: 172 ng/g; Tumor tissue concentration (ng/g) 6 h after administration [2]: 18 ng/g; solubility at 24 h (physchem): 31.6 µg/mL (≈ 97.4 µM)
Cc1nc2c(cc1-c1nccs1)c(C(N)=O)c(N)n2-c1c(C)c(O)cc(F)c1C [Example 127]	14	9.17	
Cc1nc2c(cc1-c1cnn(C)c1)c(C(N)=O)c(N)n2-c1c(C)c(O)cc(F)c1C [Example 128]	69	16.9	
Cc1nc2c(cc1-c1ccncc1)c(C(N)=O)c(N)n2-c1c(C)c(O)cc(F)c1C [Example 129]	38	10.5	
Cc1nc2c(cc1-c1cccnc1)c(C(N)=O)c(N)n2-c1c(C)c(O)cc(F)c1C [Example 131]	23	11.2	
Cc1nc2c(cc1N1CCOCC1)c(C(N)=O)c(N)n2-c1c(C)c(O)cc(F)c1C [Example 134]	56	33.6	
CCc1nc2c(cc1C)c(C(N)=O)c(N)n2-c1c(C)c(O)cc(F)c1C [Example 136]	21	9.9	
Cc1c(O)cc(F)c(C)c1-n1c(N)c(C(N)=O)c2cc3c(nc21)CCC3 [Example 179]	22	3.13	
Cc1c(O)cc(F)c(C)c1-n1c(N)c(C(N)=O)c2cc3c(nc21)CCO3 [Example 181]	63	34.8	
Cc1c(O)cc(F)c(C)c1-n1c(N)c(C(N)=O)c2cc3ccccc3nc21 [Example 191]	16	2.85	

From patent EP4624471A1, “PKMYT1 INHIBITOR, PREPARATION METHOD THEREFOR, AND PHARMACEUTICAL COMPOSITION AND USE THEREOF” (Shanghai Qilu Pharmaceutical Research and Development …, priority 2022, dated 2024)
